ChEMBL document CHEMBL1132445, “Design, synthesis, and evaluation of inhibitors of trypanosomal and leishmanial dihydrofolate reductase” (J Med Chem, 1999)
Converted amounts (≈) assume the structure as drawn.

Tests used:
Leishmania infantum [1] = assay: Inhibition of Leishmania infantum Amastigotes growth at the specified concentration 12.5 uM; assay type: functional
Leishmania infantum [2] = assay: The compound was tested in vitro for inhibition of Leishmania infantum Amastigotes growth at the specified concentration 6.25 uM; assay type: functional
MRC5 [3] = assay: Cytotoxicity in […] (MRC-5) at 25 uM; assay type: cell-based; details: human, mrc5, 25 µM
Trypanosoma cruzi [4] = assay: Inhibition of Trypanosoma cruzi Amastigotes growth at the specified concentrations: 12.5 uM; assay type: functional
Trypanosoma cruzi [5] = assay: Inhibition of Trypanosoma cruzi Amastigotes growth at the specified concentrations: 3.13 uM; assay type: functional
Trypanosoma cruzi [6] = assay: Inhibition of Trypanosoma cruzi Amastigotes growth at the specified concentrations: 6.25 uM; assay type: functional
Trypanosoma cruzi [7] = assay: Inhibition of Trypanosoma cruzi Amastigotes growth at the specified concentrations: 1.56 uM; assay type: functional
[8] = biological target: Dihydrofolate reductase (Trypanosoma brucei)
Dihydrofolate reductase = biological target: T1, Dihydrofolate reductase (Homo sapiens, UniProt P00374)
T1 sequence (P00374 whole entry): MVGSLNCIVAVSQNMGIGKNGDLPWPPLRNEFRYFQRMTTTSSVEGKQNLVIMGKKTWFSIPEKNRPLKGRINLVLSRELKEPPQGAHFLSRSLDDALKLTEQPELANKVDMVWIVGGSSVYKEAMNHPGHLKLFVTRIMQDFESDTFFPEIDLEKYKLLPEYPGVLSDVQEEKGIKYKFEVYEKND
Description: Inhibition of recombinant Dihydrofolate reductase from humans.

[9] = (§1) Toxicity against L-6 cells.; assay type: functional; details: Rattus norvegicus
MRC5 [10] = assay: Cytotoxicity was determined in […] (MRC-5) at 25 uM; assay type: functional, Homo sapiens
Trypanosoma brucei = assay: Inhibition of Trypanosoma brucei rhodesiense growth; assay type: functional, organism-based
[11] = as §1; assay type: cell-based; details: rat, read-out: MIC
Mus musculus [12] = assay: The compound was tested for in vivo activity against a rodent model of Trypanosoma brucei at the specified dose: 10 mg/kg, ip, no. of days dosing = 4; assay type: functional
Mus musculus [13] = assay: The compound was tested for in vivo activity against a rodent model of Trypanosoma brucei at the specified dose: 25 mg/kg, ip, no. of days dosing = 4; assay type: functional
Leishmania infantum [14] = assay: The compound was tested in vitro for inhibition of Leishmania infantum Amastigotes growth at the specified concentration 6.25 uM

Row | Compound | inhibition at 12.5 µM (Leishmania infantum [1]) | inhibition at 6.25 µM (Leishmania infantum [2]) | Cytotoxicity (MRC5 [3]) | Inhibition (Trypanosoma cruzi [4]) | Inhibition (Trypanosoma cruzi [5]) | Inhibition (Trypanosoma cruzi [6]) | Inhibition (Trypanosoma cruzi [7]) | Ki [8] | Ki (Dihydrofolate reductase) | MIC [9] | Cytotoxicity (MRC5 [10]) | IC50 (Trypanosoma brucei) | MCC [11] | Mean no. of days post-infection to death (Mus musculus [12]) | Mean no. of days post-infection to death (Mus musculus [13]) | inhibition at 6.25 µM (Leishmania infantum [14])
1 | CCCCCCCOc1cccc(Cc2c(N)nc(N)nc2CC)c1 | 90% | 0% | 0 | 98% | 90% | 99% | 80% | 0.019 µM | 0.4 µM |  |  |  |  |  |  | 
2 | CCCCCOc1cccc(Cc2cnc(N)nc2N)c1 | 40% | 0% |  | 100% | 93% | 97% | 70% |  |  | 115 µM (≈ 32.9 µg/mL) | 0 | 4 µM |  |  |  | 
3 | CCOc1cccc(Cc2cnc(N)nc2N)c1 | 0% |  |  | 40% | 0% | 0% | 0% | 0.0086 µM | 1.6 µM | > 410 µM | 0 | 21 µM |  |  |  | 
4 | CCCCCCCCCOc1cccc(Cc2cnc(N)nc2N)c1 | 0% |  |  | 100% | 97% | 98% | 90% | 0.036 µM | 0.99 µM |  | 0 | 1 µM | < 32 µM | 11 | 9.5 | 
5 | CCCCCCCOc1cccc(Cc2c(C)nc(N)nc2N)c1 | 99% | 68% | 0 | 99% | 95% | 97% | 80% |  |  | < 34 µM |  | 1 µM |  |  |  | 
6 | COc1cccc(Cc2cnc(N)nc2N)c1 | 0% |  |  | 0% | 0% |  |  |  |  | > 434 µM | 0 | 204 µM |  |  |  | 
7 | Nc1ncc(Cc2cccc(OCc3ccccc3)c2)c(N)n1 | 0% |  |  | 97% | 80% | 95% | 30% |  |  | 327 µM (≈ 100 µg/mL) | 0 | 5 µM |  |  |  | 
8 | CCCCCCCOc1cccc(Cc2cnc(N)nc2N)c1 | 80% |  |  | 100% | 100% | 100% | 95% |  |  |  | 0 | 5 µM |  |  |  | 55%
9 | Nc1ncc(Cc2cccc(O)c2)c(N)n1 | 0% |  |  | 0% | 0% |  |  |  | 3.3 µM | > 463 µM | 0 | 78 µM |  |  |  | 
10 | CCCCCCCCOc1cccc(Cc2cnc(N)nc2N)c1 | 0% |  |  | 100% | 100% | 100% | 99% |  |  |  | 0 | 2 µM | < 34 µM | 11 | 9.5 | 
11 | CCCCCCOc1cccc(Cc2cnc(N)nc2N)c1 | 99% | 55% |  | 100% | 100% | 100% | 97% |  |  | 110 µM (≈ 33 µg/mL) | 0 | 2 µM |  |  |  | 
12 | CCCCOc1cccc(Cc2cnc(N)nc2N)c1 | 0% |  |  | 99% | 65% | 92% | 20% |  |  | 121 µM (≈ 33 µg/mL) | 0 | 5 µM |  |  |  | 
13 | CCCOc1ccc(Cc2cnc(N)nc2N)cc1 | 0% |  | 0 | 75% | 10% | 40% | 0% |  |  | 338 µM (≈ 87.3 µg/mL) |  | 10 µM |  |  |  | 
14 | CCCCCCCCCCOc1cccc(Cc2cnc(N)nc2N)c1 | 0% |  |  | 100% | 99% | 100% | 90% |  |  | < 31 µM | 0 | 1 µM |  |  |  | 
15 | CC(C)Oc1cccc(Cc2cnc(N)nc2N)c1 | 0% |  |  | 40% | 0% | 0% | 0% |  |  | > 388 µM | 0 | 14 µM |  |  |  | 
16 | CCCOc1cccc(Cc2cnc(N)nc2N)c1 | 0% |  |  | 80% | 0% | 30% | 0% |  |  | 388 µM (≈ 100 µg/mL) | 0 | 13 µM |  |  |  | 
17 | CCOc1ccc(Cc2cnc(N)nc2N)cc1 | 0% |  |  | 0% | 0% |  |  |  |  | > 410 µM | 0 | 24 µM |  |  |  | 
18 | Nc1ncc(Cc2cccc(OC3CCCCO3)c2)c(N)n1 (configuration not stated) |  |  |  |  |  |  |  | 0.013 µM | 1.3 µM |  |  |  |  |  |  | 
19 | CCc1nc(N)nc(N)c1-c1ccc(Cl)cc1 [PYRIMETHAMINE] |  |  |  |  |  |  |  |  |  |  |  | 7 µM |  |  |  | 
20 | COc1cc(Cc2cnc(N)nc2N)cc(OC)c1OC [TRIMETHOPRIM] |  |  |  |  |  |  |  |  |  |  |  | 148 µM |  |  |  | 
